According to patent EP0089940A1, “Compositions for therapeutic or diagnostic use containing oligosaccharides” (priority 1982, dated 1983):

Key:
[1] = molecular target: T1, K88 fimbriae (Escherichia coli, UniProt P14190); assay: Inhibition of adherence of I125-labelled K88-fimbriae to brush border membranes from pig small intestine; format: binding, E.coli; conditions: for inhibition at 5000 µg/mL: read-out: inhibited the adherence of K88 fimbriae to the brush border membranes; for inhibited the adherence of K88 fimbriae to the brush border membranes: 0.5 ml oligosaccharide solution 5 mg/ml in PBS, 0.5 ml I125-labelled K88 fimbriae 0.5 mg/ml, 1 ml brush border membranes 2 · 10^6 cells/ml, 37°C
T1 construct: In the experiments I^125-labelled K88 fimbriae at a concentration of 0.5 mg/ml in PBS were used; made in house; host or cells: E. coli O149 K88+ (native fimbriae isolated from the bacteria)
T1 sequence (P14190 22-283 limits assumed): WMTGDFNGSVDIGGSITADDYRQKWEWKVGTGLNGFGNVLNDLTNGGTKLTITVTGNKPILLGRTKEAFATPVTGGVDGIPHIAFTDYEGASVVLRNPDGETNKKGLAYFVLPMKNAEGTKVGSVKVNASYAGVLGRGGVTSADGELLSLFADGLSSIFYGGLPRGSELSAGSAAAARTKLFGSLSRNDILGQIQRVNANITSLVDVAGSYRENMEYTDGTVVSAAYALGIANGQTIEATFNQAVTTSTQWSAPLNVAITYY
Experimental: In the experiments I^125-labelled K88 fimbriae at a concentration of 0.5 mg/ml in PBS were used. Moreover, brush border membranes prepared according to Sellwood et al at a concentration of 2 · 10^6 cells/ml in PBS were used.
Oligosaccharides tested for their inhibiting ability were dissolved in PBS to a concentration of 5 mg/ml.
In the inhibition tests 0.5 ml I125-labelled K88 fimbriae was incubated with 0.5 ml oligosaccharide solution at 37°C for 30 minutes, 1 ml of the suspension of brush border membranes being then added. After incubation for another 60 minutes at 37°C the mixture was centrifuged for 15 minutes at 600 x g, the radioactivity being then measured in the supernatant. As a control 1 ml of PBS was used.

[2] = system: E.coli; assay: Disinfection: removal of bacteria from an infected surface; conditions: 0.1 percent by weight aqueous solution applied by cotton pad onto a surface infected by E.coli
Experimental: By disinfection is here primarily intended removal of bacteria from a surface, for example a wound.
A 0.1 percent by weight aqueous solution of the compound a-D-Galp-(1-3)-D-Gal is prepared and applied by means of a cotton pad onto a surface infected by E.coli.

For `OC[C@H]1O[C@H](O[C@H]2[C@@H](O)[C@@H](CO)OC(O)[C@@H]2O)[C@H](O)[C@@H](O)[C@H]1O` (stereo partly drawn) [α-D-Galp-(1-3)-D-Gal], the inhibition at 5000 µg/mL [1] was 70% and the “removal of the bacterium from the surface” value [2] was “effective removal”.

Compound `OC[C@H]1O[C@H](O[C@H]2[C@@H](O)[C@@H](CO)O[C@H](O[C@H]3[C@@H](O)[C@@H](CO)OC(O)[C@@H]3O)[C@@H]2O)[C@H](O)[C@@H](O)[C@H]1O` (stereo partly drawn) [α-D-Galp-(1-3)-α-D-Galp-(1-3)-D-Gal] has an inhibition at 5000 µg/mL [1] of 79%.

`OC[C@H]1O[C@H](O[C@H]2[C@@H](O)[C@@H](CO)O[C@H](O[C@H]3[C@@H](O)[C@@H](CO)O[C@H](O[C@H]4[C@@H](O)[C@@H](CO)OC(O)[C@@H]4O)[C@@H]3O)[C@@H]2O)[C@H](O)[C@@H](O)[C@H]1O` (stereo partly drawn) [α-D-Galp-(1-3)-α-D-Galp-(1-3)-α-D-Galp-(1-3)-D--Gal] showed an inhibition at 5000 µg/mL [1] of 73%.

In the case of `OC[C@H]1O[C@H](O[C@@H]2[C@H](O)[C@@H](O)C(O)O[C@@H]2CO)[C@H](O)[C@@H](O)[C@H]1O` (stereo partly drawn) [α-D-Galp-(1-4)-D-Gal, reference compound], the “inhibited the adherence of K88 fimbriae to the brush border membranes” value [1] is reported as “inactive”.

With `OC[C@H]1O[C@H](OC[C@H]2OC(O)[C@H](O)[C@@H](O)[C@H]2O)[C@H](O)[C@@H](O)[C@H]1O` (stereo partly drawn) [α-D-Galp-(1-6)-D-Gal, reference compound] the “inhibited the adherence of K88 fimbriae to the brush border membranes” value [1] was “inactive”.
